# Laboratory results reported in publication PMC6419571, “Discovery and lead optimisation of a potent, selective and orally bioavailable RARβ agonist for the potential treatment of nerve injury” (Bioorganic & Medicinal Chemistry Letters, 2019).
# Experiments:
# [1] = Bi-directional permeability in MDR1-MDCK cell line; type: in vitro ADME; conditions: dog; MDR1-MDCK cell line
# From the text: (§1) The potential drug candidate 10 has excellent physico-chemical properties.
# [2] = tested on: MDR1-MDCK cell line; assay: Bi-directional permeability in MDR1-MDCK cell line; type: in vitro ADME
# From the text: as §1
# [3] = tested on: P-gp (MDR1); assay: Bi-directional permeability in MDR1-MDCK cell line; type: in vitro ADME; conditions: dog; MDR1-MDCK cell line, bi-directional; read-out: MDCK asymmetry ratio (efflux ratio)
# From the text: as §1
# [4] = target: T1, Cyp450 1A2 (Homo sapiens, UniProt P05177); assay: Cyp450 inhibition, 1A2; type: in vitro ADME; conditions: isoform 1A2
# T1 sequence (P05177 1-516): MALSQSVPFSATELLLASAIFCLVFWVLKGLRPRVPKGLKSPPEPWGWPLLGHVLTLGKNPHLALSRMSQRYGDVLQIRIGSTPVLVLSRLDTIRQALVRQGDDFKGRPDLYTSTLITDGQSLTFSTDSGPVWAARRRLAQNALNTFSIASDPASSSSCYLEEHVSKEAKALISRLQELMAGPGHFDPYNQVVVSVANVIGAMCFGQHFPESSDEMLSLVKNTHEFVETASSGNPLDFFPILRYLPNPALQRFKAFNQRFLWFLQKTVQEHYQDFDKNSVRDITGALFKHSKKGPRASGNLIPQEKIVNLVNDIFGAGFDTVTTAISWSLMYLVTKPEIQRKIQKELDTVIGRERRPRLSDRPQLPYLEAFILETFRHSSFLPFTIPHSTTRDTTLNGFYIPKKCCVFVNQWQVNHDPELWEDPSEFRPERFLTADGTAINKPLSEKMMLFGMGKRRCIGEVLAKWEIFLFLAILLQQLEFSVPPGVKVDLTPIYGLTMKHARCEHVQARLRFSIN
# [5] = target: Cyp450 2C9 (Homo sapiens, UniProt P11712); assay: Cyp450 inhibition, 2C9; type: in vitro ADME; conditions: isoform 2C9
# [6] = target: Cyp450 2C19 (Homo sapiens, UniProt P33261); assay: Cyp450 inhibition, 2C19; type: in vitro ADME; conditions: isoform 2C19
# [7] = Human plasma protein binding; type: in vitro ADME
# [8] = Human microsomal stability (Clint); type: in vitro ADME
# [9] = Pharmacokinetics in dog; type: in vivo; parameters: Volume distribution ss: unit not given here
# [10] = tested on: HEPG2 cell; assay: HEPG2 cell toxicity assay; type: cell-based; conditions: highest concentration tested 50 μM
# [11] = target: HERG channels (Homo sapiens, UniProt Q12809); assay: Binding assay for HERG channels; conditions: at 10 μM
# [12] = tested on: bacterial; assay: Bacterial cytotoxicity tests; type: cell-based; conditions: up to 100 μM
# Chain of Cyp450 2C19 (P33261 whole entry, canonical isoform): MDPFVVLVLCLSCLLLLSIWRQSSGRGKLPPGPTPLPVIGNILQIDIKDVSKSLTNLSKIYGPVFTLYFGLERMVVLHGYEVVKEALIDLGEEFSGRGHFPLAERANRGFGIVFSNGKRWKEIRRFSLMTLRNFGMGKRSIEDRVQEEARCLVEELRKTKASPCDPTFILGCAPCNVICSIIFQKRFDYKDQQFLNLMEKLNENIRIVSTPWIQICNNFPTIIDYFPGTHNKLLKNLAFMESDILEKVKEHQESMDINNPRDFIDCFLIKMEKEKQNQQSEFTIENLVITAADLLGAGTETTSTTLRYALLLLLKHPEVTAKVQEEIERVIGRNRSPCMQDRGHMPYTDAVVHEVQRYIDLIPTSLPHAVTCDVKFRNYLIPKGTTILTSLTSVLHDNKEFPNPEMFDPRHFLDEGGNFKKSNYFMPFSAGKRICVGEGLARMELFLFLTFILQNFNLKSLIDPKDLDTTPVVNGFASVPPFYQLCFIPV
# Chain of HERG channels (Q12809 whole entry): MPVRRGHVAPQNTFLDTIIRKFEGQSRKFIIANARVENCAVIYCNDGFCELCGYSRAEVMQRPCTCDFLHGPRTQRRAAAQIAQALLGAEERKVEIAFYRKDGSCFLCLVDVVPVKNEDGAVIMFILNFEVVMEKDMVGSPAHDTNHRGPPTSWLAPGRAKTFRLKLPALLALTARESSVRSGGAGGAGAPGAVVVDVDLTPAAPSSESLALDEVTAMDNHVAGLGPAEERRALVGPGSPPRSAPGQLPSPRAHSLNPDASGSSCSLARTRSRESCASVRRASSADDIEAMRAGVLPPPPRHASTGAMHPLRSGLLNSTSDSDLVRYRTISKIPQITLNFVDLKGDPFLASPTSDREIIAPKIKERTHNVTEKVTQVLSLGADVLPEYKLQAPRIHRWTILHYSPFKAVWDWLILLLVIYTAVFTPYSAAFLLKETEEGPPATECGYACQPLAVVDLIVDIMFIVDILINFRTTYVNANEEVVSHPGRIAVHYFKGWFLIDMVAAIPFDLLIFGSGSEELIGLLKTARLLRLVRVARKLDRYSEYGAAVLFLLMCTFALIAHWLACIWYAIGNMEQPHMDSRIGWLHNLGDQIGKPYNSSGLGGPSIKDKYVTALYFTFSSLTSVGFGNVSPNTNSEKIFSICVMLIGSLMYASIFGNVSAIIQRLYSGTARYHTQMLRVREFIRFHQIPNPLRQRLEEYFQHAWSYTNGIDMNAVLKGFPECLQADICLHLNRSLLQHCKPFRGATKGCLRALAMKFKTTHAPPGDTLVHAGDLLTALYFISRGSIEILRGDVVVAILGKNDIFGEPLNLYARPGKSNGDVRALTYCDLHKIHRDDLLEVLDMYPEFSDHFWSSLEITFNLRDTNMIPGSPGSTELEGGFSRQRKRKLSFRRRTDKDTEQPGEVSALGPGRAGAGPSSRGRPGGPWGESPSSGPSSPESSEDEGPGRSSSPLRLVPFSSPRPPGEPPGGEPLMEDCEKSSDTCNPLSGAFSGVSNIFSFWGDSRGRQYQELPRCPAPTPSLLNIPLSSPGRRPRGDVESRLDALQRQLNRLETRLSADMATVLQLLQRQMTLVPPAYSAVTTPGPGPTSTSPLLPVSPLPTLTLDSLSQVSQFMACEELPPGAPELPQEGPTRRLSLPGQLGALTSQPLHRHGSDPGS
# Chain of Cyp450 2C9 (P11712 whole entry, canonical isoform): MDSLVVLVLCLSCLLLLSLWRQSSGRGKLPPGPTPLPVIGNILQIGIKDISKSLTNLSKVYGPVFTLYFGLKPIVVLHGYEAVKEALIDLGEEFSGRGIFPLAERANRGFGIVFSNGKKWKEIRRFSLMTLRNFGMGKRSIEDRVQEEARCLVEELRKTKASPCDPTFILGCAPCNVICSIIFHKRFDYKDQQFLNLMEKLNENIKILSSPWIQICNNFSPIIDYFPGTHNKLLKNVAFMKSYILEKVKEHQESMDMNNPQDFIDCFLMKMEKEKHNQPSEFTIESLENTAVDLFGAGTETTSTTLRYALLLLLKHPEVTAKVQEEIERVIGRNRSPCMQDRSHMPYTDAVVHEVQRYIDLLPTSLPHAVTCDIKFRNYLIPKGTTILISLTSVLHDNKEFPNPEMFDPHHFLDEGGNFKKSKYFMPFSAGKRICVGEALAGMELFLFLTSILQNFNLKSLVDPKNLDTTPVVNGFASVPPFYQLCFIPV
smiles,measurement,setting,value
"Cc1ccc(C)c2oc(-c3nc(-c4ccc(C(=O)O)cc4)no3)cc12 [Compound 10, 4-(5-(4,7-dimethylbenzofuran-2-yl)-1,2,4-oxadiazol-3-yl)benzoic acid]",Papp,[1],28 ×10⁻⁶ cm/s
same,permeability (in words),[2],good permeability
same,MDCK asymmetry ratio (efflux ratio),"[2]; MDR1-MDCK cell line, bi-directional",close to unity
same,efflux ratio,[3],0.8
same,IC50,[4],> 25 µM
same,IC50,[5],> 25 µM
same,IC50,[6],> 25 µM
same,fraction unbound,[7],0.02
same,stability in human microsomes (in words),[8],very high stability
same,microsomal CLint,"[8]; human microsomes, 37 °C, NADPH, 45 min, mean of 5 experiments",< 1 µL/min/mg
same,t1/2,[9],2.5 h
same,clearance,"[9]; blood, iv dose 0.5 mg/kg",1.1 mL/min/kg
same,bioavailability,"[9]; in vivo, po, 3 mg/kg, dogs",> 40%
same,Volume distribution ss,[9]; iv dose 0.5 mg/kg,0.23
same,Fraction absorbed,[9]; oral 3 mg/kg vs iv 0.5 mg/kg,45%
same,Tmax,[9]; oral dose 3 mg/kg,1.0 h
same,HEPG2 cell toxicity alerts,[10],completely devoid of alerts
same,HERG channel binding inhibition,[11],no inhibition
same,bacterial cytotoxicity,[12],inactive
